For 17 compounds, EC50 results are on record in patent US11518760B2 (Liverpool School of Tropical Medicine, priority 2017, dated 2022).

The test system of this test is C6/36 Aedes albopictus cell line infected with Wolbachia pipientis (Wolbachia strain wAlbB). Nature of the test: In vitro insect cell line assay (anti-Wolbachia screen, SYTO 11 high content imaging). Type of test: cell-based. To be noted: 168 h; C6/36 Aedes albopictus cells infected with Wolbachia pipientis wAlbB, 7 days incubation, SYTO 11 imaging; read-out: In vitro anti-Wolbachia activity. Summed up: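 SYTO 11 staining (15 min), high-content imaging and texture analysis were the read-out on day 7. Before that, C6/36 mosquito cells carrying Wolbachia strain wAlbB were incubated at 26 °C with test compound at 5 μM final, alongside DMSO-only control wells.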
`CC1COCCN1c1nc(NCc2cccnc2C(F)(F)F)c2nccnc2n1` (centres unmarked) [Example 309, 2-(3-methylmorpholino)-N-((2-(trifluoromethyl)pyridin-3-yl)methyl)pteridin-4-amine]: the EC50 is 100 to 1000 nM.
The result for `FC(F)(F)Oc1ccccc1CNc1ncnc2ccsc12` [Example 24, N-(2-(trifluoromethoxy)benzyl)thieno[3,2-d]pyrimidin-4-amine] reads 100 to 1000 nM; that for `COc1cnc2nc(N3CCOCC3C)nc(NCc3cccnc3C(F)(F)F)c2c1` (centres unmarked) [Example 304], 1000 to 100000 nM.
As to `O=C(Nc1ncnc2ccsc12)c1ccccc1Cl` [Example 40, 2-chloro-N-(thieno[3,2-d]pyrimidin-4-yl)benzamide], the EC50 was in the range of 1000 to 100000 nM.
Take `N#CC1CN(c2nc(NCc3cccnc3C(F)(F)F)c3cccnc3n2)CCO1` (centres unmarked) [Example 257, 4-(4-(((2-(trifluoromethyl)pyridin-3-yl)methyl)amino)pyrido[2,3-d]pyrimidin-2-yl)morpholine-2-carbonitrile]: the EC50 lay in the range of 10 to 100 nM.
Consider `NC(=O)c1nc(NCc2ccccc2C(F)(F)F)c2sccc2n1` [Example 155, 4-((2-(trifluoromethyl)benzyl)amino)thieno[3,2-d]pyrimidine-2-carboxamide], for which the EC50 was 1000 to 100000 nM.
For `FC(F)(F)c1ccccc1C1CCCN1c1ncnc2ccsc12` (centres unmarked) [Example 79], the EC50 lay within 100 to 1000 nM.
`Clc1nc(NCc2ccccc2Cl)c2sccc2n1` [Example 21, 2-chloro-N-(2-chlorobenzyl)thieno[3,2-d]pyrimidin-4-amine]: the EC50 was in the range of 10 to 100 nM.
In the case of `C[C@H]1OCCN(c2nc(NCc3cccnc3C(F)(F)F)c3cccnc3n2)[C@H]1C` [Example 287, 2-((2R,3S)-2,3-dimethylmorpholino)-N-((2-(trifluoromethyl)pyridin-3-yl)methyl)pyrido[2,3-d]pyrimidin-4-amine] it was 0.01 to 1 nM; in that of `Cc1nc(N(C)C(C)c2ccccc2C(F)(F)F)c2sccc2n1` (centres unmarked) [Example 66, N,2-dimethyl-N-(1-(2-(trifluoromethyl)phenyl)ethyl)thieno[3,2-d]pyrimidin-4-amine], 1 to 10 nM; in that of `CC(C)Nc1nc(N2CCOCC2c2ccccc2C(F)(F)F)c2cccnc2n1` (centres unmarked) [Example 187, N-isopropyl-4-(3-(2-(trifluoromethyl)phenyl)morpholino)pyrido[2,3-d]pyrimidin-2-amine], 1000 to 100000 nM.
For the compound `O=C(Nc1ccc(F)cc1)Nc1nc(NCc2cccnc2C(F)(F)F)c2cccnc2n1` [Example 204, 1-(4-fluorophenyl)-3-(4-(((2-(trifluoromethyl)pyridin-3-yl)methyl)amino)pyrido[2,3-d]pyrimidin-2-yl)urea], the EC50 was 10 to 100 nM.
The result for `FC(F)(F)c1ncccc1CNc1nc(NC2CC2)nc2ncccc12` [Example 159, N^2-cyclopropyl-N^4-((2-(trifluoromethyl)pyridin-3-yl)methyl)pyrido[2,3-d]pyrimidine-2,4-diamine] reads 1 to 10 nM; that for `CC(C)Nc1nc(NCc2ccc(S(C)(=O)=O)cc2)c2cccnc2n1` [Example 128, N^2-isopropyl-N^4-(4-(methylsulfonyl)benzyl)pyrido[2,3-d]pyrimidine-2,4-diamine], 100 to 1000 nM; that for `FC(F)(F)c1ccncc1CNc1ncnc2ccsc12` [Example 82], 1000 to 100000 nM.
The result for `O=C(Nc1cccc(F)c1)Nc1nc(NCc2cccnc2C(F)(F)F)c2cccnc2n1` [Example 205, 1-(3-fluorophenyl)-3-(4-(((2-(trifluoromethyl)pyridin-3-yl)methyl)amino)pyrido[2,3-d]pyrimidin-2-yl)urea] reads 10 to 100 nM; that for `FC1(F)CCN(Cc2nc(NCc3cccnc3C(F)(F)F)c3cccnc3n2)C1` [Example 230, 2-((3,3-difluoropyrrolidin-1-yl)methyl)-N-((2-(trifluoromethyl)pyridin-3-yl)methyl)pyrido[2,3-d]pyrimidin-4-amine], 1000 to 100000 nM.
